# From patent US8178709B2, “Iron preparation suitable for pharmaceutical formulation and process for the preparation thereof” (BioLink Life Sciences, Inc., priority 2009, dated 2012)
# Key:
# human apotransferrin = human apotransferrin (Homo sapiens, UniProt P02787); assay: Iron binding to human apotransferrin (method of Bates, absorbance at 470 nm); conditions: Tris buffer with bicarbonate, pH 7.5, 25.0° C., FIG. 1
# From the text: The major iron transport pool in human serum is iron bound to apotransferrin, an 80 kDa bilobal protein with two iron binding sites. The function of apotransferrin is: i) to bind iron and as transferrin (iron-laden apotransferrin) move iron from storage depots (ferritin) to various cell receptors; ii) to prevent iron from engaging in redox reactions which produce toxic free radicals; and iii) to prevent bacterial acquisition of this essential nutrient. Consequently, the best way to introduce iron into the normal metabolic pool is to deliver it to apotransferrin. […] Therefore, we measured the kinetics of Fe-transferrin formation from iron preparations of the invention and compared the kinetics to the kinetics of Fe-transferrin formation from commercial soluble ferric pyrophosphate and ferric sulfate-NTA complex at identical conditions according to the method of Bates, et al. [Bates, G. W., Billups, C. […]
# The following test articles were evaluated in this study: Products 2-1 through 2-4 (described in Example 2); soluble ferric pyrophosphate (SFP), lot 112362 manufactured by The Dr. Paul Lohmann Chemical Company, Emmerthal, Germany (“Lohmann”); and ferric sulfate:NTA chelate.
# Experimental Details. […] The binding of iron to apotransferrin was monitored at 470 nm, the absorption maximum for ferric transferrin. […]
# macrophages = conditions: ferric citrate-treated macrophages; cited from earlier work
# Chain of human apotransferrin (P02787 20-698): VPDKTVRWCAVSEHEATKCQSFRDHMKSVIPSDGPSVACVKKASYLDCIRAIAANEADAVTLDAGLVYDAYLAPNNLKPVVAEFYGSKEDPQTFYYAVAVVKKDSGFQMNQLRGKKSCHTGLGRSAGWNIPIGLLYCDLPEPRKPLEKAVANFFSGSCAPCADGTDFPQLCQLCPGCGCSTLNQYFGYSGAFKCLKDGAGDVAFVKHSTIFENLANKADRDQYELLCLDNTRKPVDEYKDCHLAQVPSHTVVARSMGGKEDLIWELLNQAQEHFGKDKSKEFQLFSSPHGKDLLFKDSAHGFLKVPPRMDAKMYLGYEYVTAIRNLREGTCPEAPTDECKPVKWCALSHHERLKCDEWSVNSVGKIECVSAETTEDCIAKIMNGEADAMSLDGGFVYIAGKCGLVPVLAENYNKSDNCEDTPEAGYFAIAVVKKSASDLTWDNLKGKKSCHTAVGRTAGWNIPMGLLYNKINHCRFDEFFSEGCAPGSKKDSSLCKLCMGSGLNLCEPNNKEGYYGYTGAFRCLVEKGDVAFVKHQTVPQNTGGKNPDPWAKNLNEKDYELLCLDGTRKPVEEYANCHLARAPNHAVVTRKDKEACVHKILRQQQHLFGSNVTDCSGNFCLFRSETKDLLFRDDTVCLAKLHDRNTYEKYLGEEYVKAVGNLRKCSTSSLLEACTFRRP
Substance,Extent (efficiency) of iron uptake by human apotransferrin (human apotransferrin),Level of lipid peroxidation (macrophages),Phagocytic capacity (macrophages)
soluble ferric pyrophosphate,near quantitative efficiency,–,–
ferric sulfate:NTA chelate [ferric sulfate-NTA chelate],near quantitative efficiency,–,–
ferric citrate,–,significantly elevated,inhibited in a dose-related manner
